Peptide text beside a SMILES is read from it.
Molecular target: T1, KDM7B PHD-finger (Homo sapiens, UniProt Q9UPP1)
T1 construct: KDM7B 1-66; His-tag (C); made in house
T1 sequence (Q9UPP1 1-66 isoform Q9UPP1-2): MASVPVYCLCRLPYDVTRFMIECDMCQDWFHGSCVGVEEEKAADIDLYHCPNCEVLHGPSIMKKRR
Assay: Protein NMR 1H-15N HSQC chemical shift perturbation
Assay type: binding
From the text: To better elucidate OC9 interactions at a single residue level, we conducted protein NMR studies using isotopically labelled PHD-finger.[48] Comparison of ^1H–^15N HSQC spectra for isotopically labelled apo and OC9-bound protein (Fig. 4a), independently assigned using ^13C,^15N 3D experiments (Fig. S21, NMR ESI ^†), identified 24 out of 66 protein residues with significant (standard deviation, s > 1) chemical shift perturbation (CSP, Δδ) of their backbone amides (Fig. 4b).
(a) ^1H–^15N HSQC of KDM7B PHD-finger in the apo (black) or bound forms with OC9 (purple, 1 : 1) or H3_1–21K4me3 (green, 3 : 1). (b) ^1H and ^15N chemical shift changes for apo vs. + OC9 were combined and weighted to give chemical shift perturbation (CSP) (Δδ) values. Standard deviation (σ) of Δδ are indicated (>1 pink, >2 purple). (c) TALOS+ predicts similar secondary structure elements in apo and OC9-bound solution protein complexes (light grey) to those found in PDB ID 3KV4 (dark grey). […] (e) Shielded ^1H-NMR signals centred around −0.5 ppm belonging to the OC9 V10 γ-methyl groups are observed in some OC9–PHD complexes, but not in apo protein, or complexes with OC9 V10A and OC9 V10DV. The V10^OC9 γ-methyl signals have NOE interactions (black semi-circles) with the W29^PHD indole, which itself is shielded upon binding of OC9 (indicated by ΔδH values).

## CC(C)[C@@H]1NC(=O)[C@H](CO)NC(=O)[C@@H]2CCCN2C(=O)[C@H](Cc2ccc(O)cc2)NC(=O)[C@@H]2CCCN2C(=O)[C@H](Cc2c[nH]cn2)NC(=O)[C@H]([C@@H](C)O)NC(=O)[C@H](C)NC(=O)[C@H](Cc2ccc(O)cc2)NC(=O)[C@H](Cc2ccc(O)cc2)NC(=O)CSC[C@@H](C(N)=O)NC(=O)[C@H]([C@@H](C)O)NC(=O)[C@H](CCCNC(=N)N)NC(=O)[C@H](Cc2ccccc2)NC1=O [L3A] (HELM PEPTIDE1{[O=C(C[*:3])[*:2]].Y.Y.A.T.H.P.Y.P.S.V.F.R.T.C.[am]}$PEPTIDE1,PEPTIDE1,1:R3-15:R3$$$V2.0; C-terminus assumed)
Residue His49 amide, PHD+OC9 vs PHD+OC9 L3A
  CSP His49, OC9 vs OC9 L3A: 0.0165
Residue His57 amide 1H-15N, Free PHD vs PHD+peptide
  CSP His57: 0.0486
Residue His57 amide, PHD+OC9 vs PHD+OC9 L3A
  CSP His57, OC9 vs OC9 L3A: 0.0065
Residue Ile21 amide 1H-15N, Free PHD vs PHD+peptide
  CSP Ile21: 0.1438
Residue Ile21 amide, PHD+OC9 vs PHD+OC9 L3A
  CSP Ile21, OC9 vs OC9 L3A: 0.0277
Residue Ile45 amide 1H-15N, Free PHD vs PHD+peptide
  CSP Ile45: 0.1010
Residue Ile45 amide, PHD+OC9 vs PHD+OC9 L3A
  CSP Ile45, OC9 vs OC9 L3A: 0.0202
Residue Ile61 amide 1H-15N, Free PHD vs PHD+peptide
  CSP Ile61: 0.1437
Residue Ile61 amide, PHD+OC9 vs PHD+OC9 L3A
  CSP Ile61, OC9 vs OC9 L3A: 0.0065
Residue Leu9 amide 1H-15N, Free PHD vs PHD+peptide
  CSP Leu9: 0.1892
Residue Leu9 amide, PHD+OC9 vs PHD+OC9 L3A
  CSP Leu9, OC9 vs OC9 L3A: 0.0129
Residue Leu12 amide 1H-15N, Free PHD vs PHD+peptide
  CSP Leu12: 0.1747
Residue Leu12 amide, PHD+OC9 vs PHD+OC9 L3A
  CSP Leu12, OC9 vs OC9 L3A: 0.0115
Residue Leu47 amide 1H-15N, Free PHD vs PHD+peptide
  CSP Leu47: 0.1015
Residue Leu47 amide, PHD+OC9 vs PHD+OC9 L3A
  CSP Leu47, OC9 vs OC9 L3A: 0.0102
Residue Leu56 amide 1H-15N, Free PHD vs PHD+peptide
  CSP Leu56: 0.0523
Residue Leu56 amide, PHD+OC9 vs PHD+OC9 L3A
  CSP Leu56, OC9 vs OC9 L3A: 0.0102
Residue Lys41 amide 1H-15N, Free PHD vs PHD+peptide
  CSP Lys41: 0.1015
Residue Lys41 amide, PHD+OC9 vs PHD+OC9 L3A
  CSP Lys41, OC9 vs OC9 L3A: 0.0275
Residue Lys63 amide 1H-15N, Free PHD vs PHD+peptide
  CSP Lys63: 0.1309
Residue Lys63 amide, PHD+OC9 vs PHD+OC9 L3A
  CSP Lys63, OC9 vs OC9 L3A: 0.0000
Residue Lys64 amide 1H-15N, Free PHD vs PHD+peptide
  CSP Lys64: 0.0250
Residue Lys64 amide, PHD+OC9 vs PHD+OC9 L3A
  CSP Lys64, OC9 vs OC9 L3A: 0.0034
Residue Met20 amide 1H-15N, Free PHD vs PHD+peptide
  CSP Met20: 0.3554
Residue Met20 amide, PHD+OC9 vs PHD+OC9 L3A
  CSP Met20, OC9 vs OC9 L3A: 0.0065
Residue Met25 amide 1H-15N, Free PHD vs PHD+peptide
  CSP Met25: 0.7126
Residue Met25 amide, PHD+OC9 vs PHD+OC9 L3A
  CSP Met25, OC9 vs OC9 L3A: 0.0388
Residue Met62 amide 1H-15N, Free PHD vs PHD+peptide
  CSP Met62: 0.0950
Residue Met62 amide, PHD+OC9 vs PHD+OC9 L3A
  CSP Met62, OC9 vs OC9 L3A: 0.0055
Residue Phe19 amide 1H-15N, Free PHD vs PHD+peptide
  CSP Phe19: 0.3115
Residue Phe19 amide, PHD+OC9 vs PHD+OC9 L3A
  CSP Phe19, OC9 vs OC9 L3A: 0.0174
Residue Phe30 amide 1H-15N, Free PHD vs PHD+peptide
  CSP Phe30: 0.2578
Residue Phe30 amide, PHD+OC9 vs PHD+OC9 L3A
  CSP Phe30, OC9 vs OC9 L3A: 0.0115
Residue Ser3 amide 1H-15N, Free PHD vs PHD+peptide
  CSP Ser3: 0.0045
Residue Ser3 amide, PHD+OC9 vs PHD+OC9 L3A
  CSP Ser3, OC9 vs OC9 L3A: 0.0000
Residue Ser33 amide 1H-15N, Free PHD vs PHD+peptide
  CSP Ser33: 0.1165
Residue Ser33 amide, PHD+OC9 vs PHD+OC9 L3A
  CSP Ser33, OC9 vs OC9 L3A: 0.0065
Residue Ser60 amide 1H-15N, Free PHD vs PHD+peptide
  CSP Ser60: 0.0496
Residue Ser60 amide, PHD+OC9 vs PHD+OC9 L3A
  CSP Ser60, OC9 vs OC9 L3A: 0.0034
Residue Thr17 amide 1H-15N, Free PHD vs PHD+peptide
  CSP Thr17: 0.2647
Residue Thr17 amide, PHD+OC9 vs PHD+OC9 L3A
  CSP Thr17, OC9 vs OC9 L3A: 0.0068
Residue Trp29 amide 1H-15N, Free PHD vs PHD+peptide
  CSP Trp29: 0.3312
Residue Trp29 amide, PHD+OC9 vs PHD+OC9 L3A
  CSP Trp29, OC9 vs OC9 L3A: 0.0599
Residue Tyr7 amide 1H-15N, Free PHD vs PHD+peptide
  CSP Tyr7: 0.2566
Residue Tyr7 amide, PHD+OC9 vs PHD+OC9 L3A
  CSP Tyr7, OC9 vs OC9 L3A: 0.0115
Residue Tyr14 amide 1H-15N, Free PHD vs PHD+peptide
  CSP Tyr14: 0.3127
Residue Tyr14 amide, PHD+OC9 vs PHD+OC9 L3A
  CSP Tyr14, OC9 vs OC9 L3A: 0.0065
Residue Tyr48 amide 1H-15N, Free PHD vs PHD+peptide
  CSP Tyr48: 0.8682
Residue Tyr48 amide, PHD+OC9 vs PHD+OC9 L3A
  CSP Tyr48, OC9 vs OC9 L3A: 0.0765
Residue Val4 amide 1H-15N, Free PHD vs PHD+peptide
  CSP Val4: 0.0240
Residue Val4 amide, PHD+OC9 vs PHD+OC9 L3A
  CSP Val4, OC9 vs OC9 L3A: 0.0068
Residue Val6 amide 1H-15N, Free PHD vs PHD+peptide
  CSP Val6: 0.1640
Residue Val6 amide, PHD+OC9 vs PHD+OC9 L3A
  CSP Val6, OC9 vs OC9 L3A: 0.0055
Residue Val16 amide 1H-15N, Free PHD vs PHD+peptide
  CSP Val16: 0.3687
Residue Val16 amide, PHD+OC9 vs PHD+OC9 L3A
  CSP Val16, OC9 vs OC9 L3A: 0.0230
Residue Val35 amide 1H-15N, Free PHD vs PHD+peptide
  CSP Val35: 0.0569
Residue Val35 amide, PHD+OC9 vs PHD+OC9 L3A
  CSP Val35, OC9 vs OC9 L3A: 0.0102
Residue Val37 amide 1H-15N, Free PHD vs PHD+peptide
  CSP Val37: 0.0783
Residue Val37 amide, PHD+OC9 vs PHD+OC9 L3A
  CSP Val37, OC9 vs OC9 L3A: 0.0065
Residue Val55 amide 1H-15N, Free PHD vs PHD+peptide
  CSP Val55: 0.0206
Residue Val55 amide, PHD+OC9 vs PHD+OC9 L3A
  CSP Val55, OC9 vs OC9 L3A: 0.0055

Source: PMC10321576, “Cyclic peptides target the aromatic cage of a PHD-finger reader domain to modulate epigenetic protein function” (Chemical Science, 2023)
